Source: paper PMC11843629, “Development of ketobenzothiazole-based peptidomimetic TMPRSS13 inhibitors with low nanomolar potency” (Journal of Enzyme Inhibition and Medicinal Chemistry, 2025)
Numbering of substitutions follows the chain as printed. Like-named read-outs stand apart in the source and are kept apart here.

Tests used:
TMPRSS13 = target: T1, TMPRSS13 (Homo sapiens, UniProt Q9BYE2, K566A/R563A/R565A); experiment: In vitro inhibition assay, recombinant TMPRSS13-AFAAS-6His, Boc-RVRR-AMC; assay type: biochemical; conditions: dose-response curve, Cheng-Prusoff equation
T1 construct: Shedding of the TMPRSS13 catalytic domain was detected for both constructs in the cell media; made in house; host or cells: Expi293F cells
T1 sequence (Q9BYE2 with tags, fused parts or gaps isoform Q9BYE2-6 limits assumed): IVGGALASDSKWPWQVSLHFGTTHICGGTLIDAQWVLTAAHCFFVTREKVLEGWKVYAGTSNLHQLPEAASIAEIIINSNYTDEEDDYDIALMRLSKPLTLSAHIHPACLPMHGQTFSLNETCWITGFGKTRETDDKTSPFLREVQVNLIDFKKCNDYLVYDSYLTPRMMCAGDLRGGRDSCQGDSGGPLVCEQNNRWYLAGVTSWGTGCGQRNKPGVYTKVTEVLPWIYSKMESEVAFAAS
Protocol: TMPRSS13-AFAAS-6His was expressed via the Expi293 Expression System Kit (Thermo Fisher Scientific, A14635) according to the manufacturer’s instructions and purified via IMAC chromatography. Briefly, Expi293F cells were transfected for 48 h with the TMPRSS13-AFAAS-6His construct, and media containing the shed recombinant protease was injected on a HisTrap Excel column (Cytiva, 17371206) via an ÄKTA Start protein purification system (Cytiva). The bound proteins were then eluted (20 mM sodium phosphate pH 7.4, 500 mM NaCl, and 500 mM imidazole), and the TMPRSS13-containing fractions were dialysed for 16 h at 4 °C in storage buffer (20 mM sodium phosphate pH 7.4, 150 mM NaCl, and 10% glycerol). Proteins were then concentrated via a 10 kDa Amicon Ultra centrifugal filter (Millipore Sigma, UFC8010) and stored at −80 °C.
(§1) Recombinant TMPRSS13-AFAAS-6His (this study) and matriptase[34] were expressed and purified as described. Recombinant human furin, Factor Xa (R&D Systems) and thrombin (MilliporeSigma) were obtained from commercial sources. Assays were performed in a buffer composed of 50 mM HEPES pH 7.4, 1 mM β-mercaptoethanol, 1 mM CaCl2 and 500 μg/ml BSA for furin and 50 mM HEPES pH 7.4, 150 mM NaCl and 0.1% BSA for other proteases. Assays were performed at room temperature using fluorogenic substrates (Boc-RVRR-AMC for furin and TMPRSS13, Boc-QAR-AMC for other proteases). The enzymatic activity was measured via fluorescence (excitation at 360 nm and emission at 460 nm) at room temperature using an HTX Synergy microplate reader (Agilent). Kis for TMPRSS13 and Factor Xa (FXa) were derived from IC50 dose–response curves using the Cheng-Prusoff equation[35] for reversible competitive inhibitors. For matripase, a plot of the enzyme velocity as a function of the inhibitor concentration was fitted with nonlinear regression analysis via the Morrison Ki equation[36] for competitive tight-binding inhibitors.

Factor Xa = target: T2, Factor Xa (Homo sapiens, UniProt P00742); experiment: In vitro inhibition assay, Factor Xa, Boc-QAR-AMC; assay type: biochemical; conditions: Cheng-Prusoff equation
T2 construct: purchased R&D Systems
Protocol: as §1

WT TMPRSS13 = target: T3, WT TMPRSS13 (Homo sapiens, UniProt Q9BYE2); experiment: In cellulo inhibitory activity in TMPRSS13-transfected Vero cells; assay type: cell-based; conditions: 24 h; for remaining activity at 10 µM: 10 µM compound, media, relative to DMSO, read-out: residual activity of TMPRSS13; for IC50: Boc-RVRR-AMC, read-out: IC50 in cellulo TMPRSS13 inhibition
T3 construct: the full length TMPRSS13 (TMPRSS13-WT); expressed in transfected cells; host or cells: Vero C1008 (Vero E6) cells
T3 sequence (Q9BYE2 326-567 isoform Q9BYE2-6 limits assumed): T1 sequence (Q9BYE2 with tags, fused parts or gaps isoform Q9BYE2-6 limits assumed) with A238R, A240R, A241K
Protocol: Vero C1008 cells were grown in 12-well plates (200K cells per well) and transfected for 24 h via Lipofectamine 3000 (Life Technologies) with one of the following plasmids: pcDNA3.1 (empty vector, EV), pcDNA3.1-TMPRSS13 WT or pcDNA3.1-TMPRSS13-AFAAS-6His. The cells were then washed 2 times with PBS before HCell-100 medium (Wisent) containing the indicated concentrations of each compound or the control condition (0.01% DMSO) was added. After 24 h of incubation with the compounds, the medium was harvested, and 90 μL was placed in 96-well plate wells with 10 µL of 200 μM Boc-RVRR-AMC. Fluorescence was acquired at room temperature in an FLx800 TBE microplate reader, with excitation at 360 nm and emission at 460 nm. The background was then subtracted by removing the signal recorded with the cells transfected with the empty vector (pcDNA3.1). Proteolytic activity results are represented as a percentage of the DMSO-treated condition. The IC50 was calculated via nonlinear regression of the compound concentration relative to the velocity.

human trypsin = experiment: Proteolysis assay (stability) with human trypsin; assay type: in vitro ADME; conditions: human trypsin (isolated protease), pH 7.4, compound final conc. 10 µM, 37 °C
Protocol: For the proteolysis assay, human trypsin (#T6424, Sigma–Aldrich, Saint-Louis, Missouri, USA) was resuspended in 1 mM HCl and 20 mM CaCl2, pH 3, and diluted to a final concentration of 0.1 mg/ml in PBS buffer (pH 7.4, 10 mM PO43-, 150 mM NaCl). The control peptide R8 and the compounds of interest were added to a 96-well plate (37 °C) to a final concentration of 10 µM. Trypsin (0.1 µg/ml) was added to the wells for 0, 0.5, 1, 2, 4 and 6 h. The plate was quenched with AcN/EtOH (1:1) 1% formic acid and 0.25 mM N,N-dimethylbenzamide (IS) and centrifuged at 4 °C.

T2 sequence (P00742 235-488 limits assumed): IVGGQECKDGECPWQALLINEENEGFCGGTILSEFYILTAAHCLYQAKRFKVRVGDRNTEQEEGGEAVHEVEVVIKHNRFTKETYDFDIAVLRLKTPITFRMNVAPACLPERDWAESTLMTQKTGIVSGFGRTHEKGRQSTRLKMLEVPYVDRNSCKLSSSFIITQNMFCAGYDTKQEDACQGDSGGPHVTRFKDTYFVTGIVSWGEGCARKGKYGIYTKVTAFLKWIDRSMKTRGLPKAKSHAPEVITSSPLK
T2 sequence (P00742 41-179 partner limits assumed): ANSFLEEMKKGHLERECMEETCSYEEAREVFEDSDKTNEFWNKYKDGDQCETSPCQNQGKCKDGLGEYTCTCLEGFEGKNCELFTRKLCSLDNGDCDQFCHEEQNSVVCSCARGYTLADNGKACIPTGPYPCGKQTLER

Structure (SMILES) | Ki (TMPRSS13) | Ki (Factor Xa) | remaining activity at 10 µM (WT TMPRSS13) | IC50 (WT TMPRSS13) | half-life at 10 µM (human trypsin) | remaining activity at 10 µM (WT TMPRSS13; Vero)
N=C(N)NCCCCC(=O)N[C@@H](CCC(N)=O)C(=O)N[C@@H](Cc1ccccc1)C(=O)N[C@@H](CCCNC(=N)N)C(=O)c1nc2ccccc2s1 [Compound N-0130, (H)-RQFR-Kbt] | 24.6 nM | 48.2 ± 3.7 nM | 18.4% | 192 nM | 105 h | –
N=C(N)NCCCCC(=O)N[C@@H](CCC(N)=O)C(=O)N[C@@H](CCc1ccccc1)C(=O)N[C@@H](CCCNC(=N)N)C(=O)c1nc2ccccc2s1 [Compound N-0430, (H)-RQhFR-Kbt] | 5.3 nM | 56.9 ± 9 nM | – | 53 nM | 29.5 h | 9%
